{"source": "paper PMC12469672", "about": "“Effects on Oral Squamous Carcinoma Cell Lines and Their Mechanisms of Pyrazole N-Aryl Sulfonate: A Novel Class of Selective Cyclooxygenase-2 Inhibitors” (International Journal of Molecular Sciences, 2025)", "key": {"CAL-27 cells": {"tested_on": "CAL-27 cells", "assay": "Transwell migration assay, CAL-27", "format": "cell-based", "settings": "CAL-27, 24 h treatment at working concentrations, vs control", "description": "Following 24 h drug treatment at the predefined working concentrations, CAL-27 and SAS cells (5 × 10^5 cells/mL in serum-free medium) were seeded in Transwell upper chambers (200 μL/well, 1 × 10^5 cells) with 700 μL complete medium containing 10% FBS in lower chambers. After 36 h of incubation (37 °C, 5% CO2), the cells from the upper surface of the membrane were wiped off using a cotton swab, whereupon migrated cells were fixed (4% paraformaldehyde [P0099-100 mL, Beyotime, Haimen, China], 4 °C, 4 h), stained (0.1% crystal violet [C0121-100 mL, Beyotime, China], 30 min), and quantified by counting five random fields under a microscope (CX23, Olympus, Tokyo, Japan) using ImageJ (v1.8.0.322), with triplicate wells per condition."}, "MMP9 mRNA in SAS cells": {"tested_on": "MMP9 mRNA in SAS cells", "assay": "RT-qPCR MMP9 mRNA, SAS", "format": "cell-based", "settings": "vs control", "description": "(§1) Equal amounts of RNA were reverse transcribed into cDNA using the Reverse Transcription Kit (AG11705, Accurate Biology, Guangzhou, China) following the manufacturer’s instructions. Quantitative PCR was performed on a QIAGEN Rotor-GeneQ system (9001862, QIAGEN, Hilden, Germany) with SYBR Green Pro Taq HS Premix II (AG11702, Accurate Biology, China).\n(§2) The PCR protocol consisted of initial denaturation at 95 °C for 30 s, followed by 40 cycles of 95 °C for 5 s and 60 °C for 30 s. All reactions were performed in triplicate, with melting curve analysis confirming amplification specificity. The expression of the target genes was normalized to GAPDH, and fold changes were calculated in the manner of the 2^−ΔΔCT ."}, "BCL2 mRNA in SAS cells": {"tested_on": "BCL2 mRNA in SAS cells", "assay": "RT-qPCR BCL2 mRNA, SAS", "format": "cell-based", "settings": "vs NC and CXB groups", "description": "as §1, §2"}, "[1]": {"tested_on": "BCL2 protein in CAL-27 cells", "assay": "Western blot BCL2, CAL-27", "format": "cell-based", "settings": "CAL-27, vs CXB", "description": "Cell lysates were centrifuged at 12,000× g for 10 min at 4 °C and then quantified using the BCA Protein Assay Kit (CW0014S, Cwbio, Taizhou, China). The lysate was denatured with sodium dodecyl sulfate–polyacrylamide gel electrophoresis (SDS-PAGE) sample loading buffer (P1040, Solarbio, Beijing, China), followed by SDS-PAGE and electrotransfer to polyvinylidene difluoride membranes (10600023, Cytiva, Marlborough, MA, USA). The membranes were incubated overnight at 4 °C with GAPDH (1:5000, 1049-1-AP, Proteintech Group, Wuhan, China), anti-PTGS2 (1:2000, 12375-1-AP, Proteintech Group, China), anti-BAX (1:1000, ab777, Abcam, Cambridge, UK), anti-BCL2 (1:5000, ET1702-53, HUABIO, Hangzhou, China), anti-BCL-XL (1:8000, 10783-1-AP, Proteintech Group, China), anti-MMP2 (1:3000, 66366-1-Ig, Proteintech Group, China), anti-MMP9 (1:3000, 10372-2-AP, Proteintech Group, China), anti-JAK1 (1:3000, 66466-1-Ig, Proteintech Group, China), anti-phospho-JAK1 (1:400, GB115604-100, Servicebio, China), anti-STAT3 (1:2000, 10253-2-AP, Proteintech Group, China), and anti-phospho-STAT3 (1:1000, 39595, Activemotif, Shanghai, China) at the appropriate dilution and then incubated with the secondary antibody at room temperature for 1.5 h. The bands were visualized by employing an ECL detection reagent (36208ES76, Yeasen, Shanghai, China) and independently quantified twice using ImageJ (v1.8.0.322) and ChemiScope Analysis (Version 2.1.6.0) software. Subsequently, the obtained data were normalized to GAPDH."}, "[2]": {"tested_on": "JAK/STAT signaling pathway in SAS cells", "assay": "Western blot JAK/STAT signaling pathway, SAS", "format": "cell-based", "description": "Cell lysates were centrifuged at 12,000× g for 10 min at 4 °C and then quantified using the BCA Protein Assay Kit (CW0014S, Cwbio, Taizhou, China). The lysate was denatured with sodium dodecyl sulfate–polyacrylamide gel electrophoresis (SDS-PAGE) sample loading buffer (P1040, Solarbio, Beijing, China), followed by SDS-PAGE and electrotransfer to polyvinylidene difluoride membranes (10600023, Cytiva, Marlborough, MA, USA). […] The bands were visualized by employing an ECL detection reagent (36208ES76, Yeasen, Shanghai, China) and independently quantified twice using ImageJ (v1.8.0.322) and ChemiScope Analysis (Version 2.1.6.0) software. […]"}, "[3]": {"settings": "cited from earlier work"}, "[4]": {"settings": "cited from earlier work", "remark": "listed apart in the source"}}, "data": [{"smiles": "Cc1ccc(-c2cc(C)n(S(=O)(=O)Oc3ccc(I)cc3)n2)cc1", "note": "[Compound 4b]", "values": [{"measurement": "migratory capacity (Transwell)", "setting": "CAL-27 cells", "value": "significantly reduced"}, {"measurement": "MMP9 mRNA level", "setting": "MMP9 mRNA in SAS cells", "value": "significant reduction"}, {"measurement": "BCL2 mRNA expression", "setting": "BCL2 mRNA in SAS cells", "value": "significantly suppressed"}, {"measurement": "BCL2 protein suppression (Western blot)", "setting": "[1]", "value": "stronger suppression of BCL2 than CXB"}, {"measurement": "p-JAK1 level (Western blot)", "setting": "[2]", "value": "no significant change"}, {"measurement": "anti-inflammatory and analgesic activities", "setting": "[3]", "value": "excellent"}, {"measurement": "oral toxicity", "setting": "[4]", "value": "low oral toxicity"}]}, {"smiles": "Cc1ccc(-c2cc(C)n(S(=O)(=O)Oc3ccccc3Cl)n2)cc1", "note": "[Compound 4d]", "values": [{"measurement": "migratory capacity (Transwell)", "setting": "CAL-27 cells", "value": "significantly reduced"}, {"measurement": "BCL2 protein suppression (Western blot)", "setting": "[1]", "value": "stronger suppression of BCL2 than CXB"}, {"measurement": "total JAK1 (Western blot)", "setting": "[2]; vs NC", "value": "reached statistical significance"}, {"measurement": "anti-inflammatory and analgesic activities", "setting": "[3]", "value": "excellent"}, {"measurement": "oral toxicity", "setting": "[4]", "value": "low oral toxicity"}]}, {"smiles": "Cc1cc(-c2ccco2)nn1S(=O)(=O)Oc1ccccc1Cl", "note": "[Compound 5f]", "values": [{"measurement": "migratory capacity (Transwell)", "setting": "CAL-27 cells", "value": "significantly reduced"}, {"measurement": "BCL2 mRNA expression", "setting": "BCL2 mRNA in SAS cells", "value": "significantly suppressed"}, {"measurement": "BCL2 protein suppression (Western blot)", "setting": "[1]", "value": "stronger suppression of BCL2 than CXB"}]}]}
